How the values were obtained:
human IRAK4 = human IRAK4 (Homo sapiens (Human), UniProt Q9NWZ3); test: IRAK4 kinase assay (IRAK4 TR-FRET assay); format: biochemical; settings: 1 mM ATP
Method: The IRAK4-inhibitory activity of the substances according to the invention was measured in the IRAK4 TR-FRET assay (TR-FRET=Time Resolved Fluorescence Resonance Energy Transfer) described hereinafter.
Recombinant fusion protein from N-terminal GST (glutathione S-transferase) and human IRAK4, expressed in baculovirus-infected insect cells (Hi5, BTI-TN-5B1-4, cell line purchased from Invitrogen, catalogue No. B855-02) and purified via affinity chromatography, was used as enzyme. The substrate used for the kinase reaction was the biotinylated peptide biotin-Ahx-[…] (C-terminus in amide form) which can be purchased, for example, from Biosyntan GmbH (Berlin-Buch).
For the assay, 11 different concentrations in the range from 20 μM to 0.073 nM were prepared from a 2 mM solution of the test substance in DMSO. 50 nl of the respective solution were pipetted into a black low-volume 384-well microtitre plate (Greiner Bio-One, Frickenhausen, Germany), 2 μl of a solution of IRAK4 in assay buffer [50 mM HEPES pH 7.5, 5 mM MgCl2, 1.0 mM dithiothreitol, 30 μM activated sodium orthovanadate, 0.1% (w/v) of bovine gamma-globulin (BGG) 0.04% (v/v) nonidet-P40 (Sigma)] were added and the mixture was incubated for 15 min to allow prebinding of the substances to the enzyme prior to the kinase reaction. The kinase reaction was then started by addition of 3 μl of a solution of adenosine triphosphate (ATP, 1.67 mM=final concentration in 5 μl of assay volume: 1 mM) and peptide substrate (0.83 μM=final concentration in 5 μl assay volume: 0.5 μM) in assay buffer, and the resulting mixture was incubated at 22° C. for the reaction time of 45 min. The concentration of the IRAK4 was adjusted to the respective activity of the enzyme and set such that the assay was carried out in the linear range. Typical concentrations were in the order of about 0.2 nM. The reaction was stopped by addition of 5 μl of a solution of TR-FRET detection reagents [0.1 μM streptavidin-XL665 (Cisbio Bioassays; France, catalogue No. 610SAXLG)] and 1.5 nM anti-phosphoserine antibody [Merck Millipore, “STK Antibody”, catalogue No. 35-002] and 0.6 nM LANCE EU-W1024-labelled anti-mouse-IgG antibody (Perkin-Elmer, product No. AD0077; alternatively, it is possible to use a terbium cryptate-labelled anti-mouse-IgG antibody from Cisbio Bioassays) in aqueous EDTA solution (100 mM EDTA, 0.4% [w/v] bovine serum albumin [BSA] in 25 mM HEPES pH 7.5).
The resulting mixture was incubated at 22° C. for 1 h to allow formation of a complex of the biotinylated phosphorylated substrate and the detection reagents. The amount of the phosphorylated substrate was then evaluated by measuring the resonance energy transfer from europium chelate-labelled anti-mouse-IgG antibody to streptavidin-XL665. To this end, the fluorescence emissions at 620 nm and 665 nm were measured after excitation at 350 nm in a TR-FRET measuring instrument, for example a Rubystar (BMG Labtechnologies, Offenburg, Germany) or a Viewlux (Perkin-Elmer). The ratio of the emissions at 665 nm and 622 nm was taken as a measure of the amount of phosphorylated substrate. The data were normalized (enzyme reaction without test substance=0% inhibition; all other assay components but no enzyme=100% inhibition). Typically, the test substances were tested on the same microtitre plates at 11 different concentrations in the range from 20 μM to 0.073 nM (20 μM, 5.7 μM, 1.6 μM, 0.47 μM, 0.13 μM, 38 nM, 11 nM, 3.1 nM, 0.89 nM, 0.25 nM and 0.073 nM). The dilution series were prepared prior to the assay (2 mM to 7.3 nM in 100% DMSO) by serial dilutions. The IC50 values were calculated using a 4-parameter fit.

[1] = tested on: secretion of TNF-α in THP-1 cells; test: TNF-α secretion in THP-1 cells (LPS-triggered); format: cell-based, human; settings: Homo sapiens, THP-1, 17 h, LPS 0.05 μg/ml, read-out: IC50 with respect to the secretion of TNF-α in THP-1 cells
Method: TNF-α Secretion in THP-1 Cells
With the aid of this test, it is possible to test substances for their ability to inhibit secretion of TNF-α (tumour necrosis factor alpha) in THP-1 cells (human monocytic acute leukaemia cell line). TNF-α is a cytokine involved in inflammatory processes. In this test, TNF-α secretion is triggered by incubation with bacterial lipopolysaccharide (LPS).
THP-1 cells are kept in continuous suspension cell culture [RPMI 1460 medium with L-Glutamax (Gibco, Cat No. 61870-044) supplemented with foetal calf serum (FCS) 10% (Invitrogen, Cat No. 10082-147), 1% penicillin/streptomycin (Gibco BRL, Cat No. 15140-114)] and should not exceed a cell concentration of 1×10^6 cells/ml. The assay is carried out in cell culture medium (RPMI 1460 medium with L-Glutamax supplemented with FCS 10%).
In each case 2-2.5 μl of the cell suspension (corresponds to 4000 cells) per well were dispensed into a 384-well test plate (Greiner, Cat No. 784076), in each of which 40-50 nl substance had been dissolved in 100% DMSO. This was done using […] in the range from 20 μM to 0.073 nM for each substance. The cells were incubated at room temperature for 15 min. 2-2.5 μl of 0.1 μg/ml LPS (Sigma, Escherichia coli 055:B5, Cat. No. L5418) dissolved in cell culture medium (final concentration 0.05 μg/ml) were then dispensed into each well. As neutral control, cells were treated with 0.05 μg/ml LPS and 1% DMSO and, as inhibitor control, with 1% DMSO only.
The plates were centrifuged at 80 g for 30 s and incubated at 37° C., 5% CO2 and 95% atmospheric humidity for 17 h. The amount of TNF-α was determined using the TNF-alpha HTRF Detection Kit (Cisbio, Cat No. 62TNFPEB/C). To this end, 2 μl of the detection solution in each case, consisting of anti-TNF-α-XL665 conjugate and anti-TNF-α-cryptate conjugate dissolved in the reconstitution buffer in accordance with the manufacturer's instructions, were added for the HTRF (Homogeneous Time-Resolved Fluorescence) test. After the addition, the mixture was incubated either at room temperature for 3 h or at 4° C. overnight. The signals were then read at 620/665 nm using an HTRF-enabled measuring instrument such as the BMG PheraStar.
The activity of the substances is expressed as the ratio between neutral and inhibitor control in percent. The IC50 values were calculated using a 4-parameter fit.

human IRAK4, sequence (Q9NWZ3 whole entry): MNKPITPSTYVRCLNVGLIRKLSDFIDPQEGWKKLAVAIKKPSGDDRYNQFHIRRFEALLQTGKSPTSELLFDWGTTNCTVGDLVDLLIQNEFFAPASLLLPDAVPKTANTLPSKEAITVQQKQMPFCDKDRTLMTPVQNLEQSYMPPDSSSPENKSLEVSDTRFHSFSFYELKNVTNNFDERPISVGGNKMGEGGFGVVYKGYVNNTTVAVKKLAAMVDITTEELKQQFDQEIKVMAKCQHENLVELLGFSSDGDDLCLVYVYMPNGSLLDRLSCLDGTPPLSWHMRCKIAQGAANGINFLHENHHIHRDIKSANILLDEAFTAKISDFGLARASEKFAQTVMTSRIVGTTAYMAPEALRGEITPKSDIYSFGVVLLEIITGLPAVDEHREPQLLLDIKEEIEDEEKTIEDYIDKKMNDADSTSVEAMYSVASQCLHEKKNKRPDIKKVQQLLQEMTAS

SMILES	IC50 (human IRAK4)	IC50 [1]
COc1cc2nn([C@H]3C[C@@H]4C[C@H]3CN4C)cc2cc1NC(=O)c1cccc(C(F)(F)F)n1 (relative stereo) [Example 19, rel-N-{6-Methoxy-2-[(1S,4S,5S)-2-methyl-2-azabicyclo[2.2.1]hept-5-yl]-2H-indazol-5-yl}-6-(trifluoromethyl)pyridine-2-carboxamide]	9 nM	190 nM
O=C(Nc1cc2cn(C3CCS(=O)(=O)CC3)nc2cc1OCC1CC1)c1cccc(C(F)(F)F)n1 [Example 17, N-[6-(Cyclopropylmethoxy)-2-(1,1-dioxidotetrahydro-2H-thiopyran-4-yl)-2H-indazol-5-yl]-6-(trifluoromethyl)pyridine-2-carboxamide]	20 nM	110 nM
CC(C)(O)c1cc2nn(C3CCOCC3)cc2cc1NC(=O)c1cccc(C(F)(F)F)n1 [Example 34, N-[6-(2-Hydroxypropan-2-yl)-2-(tetrahydro-2H-pyran-4-yl)-2H-indazol-5-yl]-6-(trifluoromethyl)pyridine-2-carboxamide]	6 nM	230 nM
COc1cc2nn(C3CCOCC3)cc2cc1NC(=O)c1ccnc(C(C)C)n1 [Example 27, 2-Isopropyl-N-[6-methoxy-2-(tetrahydro-2H-pyran-4-yl)-2H-indazol-5-yl]pyrimidine-4-carboxamide]	111 nM	1790 nM
COc1cc2nn(C3CCN(CC(F)(F)F)CC3)cc2cc1NC(=O)c1cccc(C(F)(F)F)n1 [Example 3, N-{6-Methoxy-2-[1-(2,2,2-trifluoroethyl)piperidin-4-yl]-2H-indazol-5-yl}-6-(trifluoromethyl)pyridine-2-carboxamide]	7 nM	750 nM
COc1cc2nn(C3CCOC3)cc2cc1NC(=O)c1cccc(C(F)(F)F)n1 (stereo not drawn) [Example 29, N-[6-Methoxy-2-(tetrahydrofuran-3-yl)-2H-indazol-5-yl]-6-(trifluoromethyl)pyridine-2-carboxamide]	10 nM	630 nM

More lines, now with the values ahead:

IC50 (human IRAK4)	IC50 [1]	SMILES
8 nM	520 nM	COc1cc2nn(C3CCN(S(=O)(=O)NC(C)=O)CC3)cc2cc1NC(=O)c1cccc(C(F)(F)F)n1 [Example 8, N-{2-[1-(Acetylsulphamoyl)piperidin-4-yl]-6-methoxy-2H-indazol-5-yl}-6-(trifluoromethyl)pyridine-2-carboxamide]
11 nM	1800 nM	COC(=O)c1cc2nn(C3CCOCC3)cc2cc1NC(=O)c1cccc(C(F)(F)F)n1 [Example 33, Methyl 2-(tetrahydro-2H-pyran-4-yl)-5-({[6-(trifluoromethyl)pyridin-2-yl]carbonyl}amino)-2H-indazole-6-carboxylate]
10 nM	840 nM	COc1cc2nn(C3CCOCC3)cc2cc1NC(=O)c1csc(C)n1 [Example 25, N-[6-Methoxy-2-(tetrahydro-2H-pyran-4-yl)-2H-indazol-5-yl]-2-methyl-1,3-thiazole-4-carboxamide]
31 nM	630 nM	CC(C)(O)c1cc2nn([C@@H]3CCOC3)cc2cc1NC(=O)c1cccc(C(F)(F)F)n1 [Example 38, N-{6-(2-Hydroxypropan-2-yl)-2-[(3R)-tetrahydrofuran-3-yl]-2H-indazol-5-yl}-6-(trifluoromethyl)pyridine-2-carboxamide]
34 nM	280 nM	CC(C)(O)c1cccc(C(=O)Nc2cc3cn(C4CCS(=O)(=O)CC4)nc3cc2Cl)n1 [Example 32, N-[6-Chloro-2-(1,1-dioxidotetrahydro-2H-thiopyran-4-yl)-2H-indazol-5-yl]-6-(2-hydroxypropan-2-yl)pyridine-2-carboxamide]
13 nM	150 nM	COc1cc2nn(C3CNC(=O)C3)cc2cc1NC(=O)c1cccc(C(F)(F)F)n1 (stereo not drawn) [Example 22, N-[6-Methoxy-2-(5-oxopyrrolidin-3-yl)-2H-indazol-5-yl]-6-(trifluoromethyl)pyridine-2-carboxamide]

— US10435396B2, “2-substituted indazoles, methods for producing same, pharmaceutical preparations that contain same, and use of same to produce drugs” (Bayer Pharma Aktiengesellschaft, priority 2016, dated 2019)
